One assay concerns the target T1, Human DYRK1B (Homo sapiens, UniProt Q9Y463).
T1 construct: purchased Invitrogen PR8350B (former PV4649)
Nature of the assay: DYRK1B Kinase TR-FRET (IMAP-Tb) Assay. In kind it is biochemical. To be noted: for IC50: TR-FRET (IMAP-Tb), ATP 70 μM, 37° C. for 60 minutes, averages of multiple runs, read-out: Enzyme IC50 (μM) DYRK1B; for inhibition at 10 µM: at 10 μM test compound concentration, where the IC50 was not determined. The text has this: DYRK1B Kinase TR-FRET (IMAP-Tb) Assay Assay Principle The kinase TR-FRET (IMAP-Tb) assay uses a fluorescence labeled substrate peptide in the kinase reaction. Upon phosphorylation by the kinase, phosphopeptide is produced, which will be detected by the binding solution provided in IMAP TR-FRET binding kit. After the completion of the kinase reaction, the reaction will be stopped by adding the binding solution containing terbium tracer. This tracer is immobilized on the surface of the IMAP beads, which also contain metal ions on the beads that bind to the phospho-groups of the products. Thus the phosphorylated product of the reaction can enter into close proximity to the tracer, producing resonance energy transfer. Due to the long lifetime of terbium (Tb) fluorescence the detection can be run in time resolved mode, which virtually eliminates fluorescence interference from assay components or compounds. The TR-FRET signal measurement from this assay, given as an IC50 measurement, is a measure of a test compound's ability to interfere with the phosphorylation of the peptide substrate, that is it inhibits the phosphorylation of the substrate peptide by DYRK1B, and is thus a measure of the test compound's ability to inhibit the activity of DYRK1B. IC50 is the amount of test compound that inhibits 50% of the activity of DYRK1B in this assay. In some cases where the IC50 was not determined, then the % inhibition at 10 μM test compound concentration may be reported. Materials and Reagents • 1. Human DYRK1B: from Invitrogen. Part #PR8350B (former PV4649) • 2. Substrate Peptide: in-house synthesized: RRRFRPASPLRGPPK • 3. IMAP TR-FRET IPP Explorer Kit: from Molecular Devices. Part #R8157 • 4. Kinase Assay Buffer (KAB): 10 mM HEPES pH 7.0, 50 mM NaCl, 5 mM MgCl2, 1 mM DTT, 1 mM NaVO4, 200 μg/mL BSA (0.02%) • 5. Assay Plate: Remp polypropylene clear 384-well microplate. Cat#23490-102 • 6. Detection Plate: Costa black 384-well microplate. Cat #3710 Assay Procedure: this Assay was Performed as Follows: • 1. Transfer 1.5 μL of 20× compound solution to each well of an assay plate. • 2. Add to each well 22.5 μL of KAB Buffer. • 3. Add to each well 3 μL of the solution of DYRK1B and ATP. […] Add to each well 3 μL of the substrate peptide. The assay concentration is 1.0 μM • 5. Incubate the assay plates at 37° C. for 60 minutes. • 6. Add 18 μL of Detection Solution (1:800 diluted Progress bead stock, 1:400 diluted Tb stock, 80% Buffer A, and 20% Buffer B) into each well of detection plates. • 7. Transfer 6 μL of assay solution from the assay plate to the detection plate. • 8. Shake detection plates for 30 minutes. • 9. Read plates in Envision with wavelength set at excitation 340 nm for Tb, emission 490 nm, and […] 520 nm. • 10. Calculation: TR-FRET Signal=(Reading at […]/Reading at 490 nM)×2000000

The next assay concerns the target T2, Human DYRK1A (Homo sapiens, UniProt Q13627).
T2 construct: purchased Invitrogen PV3997
Nature of the assay: DYRK1A Kinase TR-FRET (IMAP-Tb) Assay. In kind it is biochemical. To be noted: for IC50: TR-FRET (IMAP-Tb), ATP 70 μM, 37° C. for 60 minutes, averages of multiple runs, read-out: Enzyme IC50 (μM) DYRK1A. From the text: DYRK1A Kinase TR-FRET (IMAP-Tb) Assay
The kinase TR-FRET (IMAP-Tb) assay uses a fluorescence labeled substrate peptide in the kinase reaction. Upon phosphorylation by the kinase, phosphopeptide is produced, which will be detected by the binding solution provided in IMAP TR-FRET binding kit. After the completion of the kinase reaction, the reaction will be stopped by adding the binding solution containing terbium tracer. This tracer is immobilized on the surface of the IMAP beads, which also contain metal ions on the beads that bind to the phospho-groups of the products. Thus the phosphorylated product of the reaction can enter into close proximity to the tracer, producing resonance energy transfer. Due to the long lifetime of terbium (Tb) fluorescence the detection can be run in time resolved mode, which virtually eliminates fluorescence interference from assay components or compounds.
The TR-FRET signal measurement from this assay, given as an IC50 measurement, is a measure of a test compound's ability to interfere with the phosphorylation of the peptide substrate, that is it inhibits the phosphorylation of the substrate peptide by DYRK1A, and is thus a measure of the test compound's ability to inhibit the activity of DYRK1A.
Materials and Reagents • 1. Human DYRK1A: from Invitrogen. Part #PV3997 • 2. Substrate Peptide: […] • 3. IMAP TR-FRET IPP Explorer Kit: from Molecular Devices. Part #R8157 • 4. Kinase Assay Buffer (KAB): 10 mM HEPES pH 7.0, 50 mM NaCl, 5 mM MgCl2, 1 mM DTT, 1 mM NaVO4, 200 ug/mL BSA (0.02%) • 5. Assay Plate: Remp polypropylene clear 384-well microplate. […] Detection Plate: Costa black 384-well microplate.
Assay Procedure: this Assay was Performed as Follows: • 1. Transfer 1.5 μL of 20× compound solution to each well of an assay plate. • 2. Add to each well 22.5 μL of KAB Buffer. • 3. Add to each well 3 μL of the solution of DYRK1A and ATP. […] Add to each well 3 μL of the substrate peptide. The assay concentration is 1.0 μM • 5. Incubate the assay plates at 37° C. for 60 minutes. • 6. Add 18 μL of Detection Solution (1:800 diluted Progress bead stock, 1:400 diluted Tb stock, 80% Buffer A, and 20% Buffer B) into each well of detection plates. • 7. Transfer 6 μL of assay solution from the assay plate to the detection plate. • 8. Shake detection plates for 30 minutes. • 9. Read plates in Envision with wavelength set at excitation 340 nm for Tb, emission 490 nm, and […] 520 nm. • 10.
A general note: TR-FRET usually uses a lanthanide donor and a delayed reading to cut background.

Counter-ions that a name gives are not always drawn. Bounds are passed on as bounds.

T1 sequence (Q9Y463 whole entry): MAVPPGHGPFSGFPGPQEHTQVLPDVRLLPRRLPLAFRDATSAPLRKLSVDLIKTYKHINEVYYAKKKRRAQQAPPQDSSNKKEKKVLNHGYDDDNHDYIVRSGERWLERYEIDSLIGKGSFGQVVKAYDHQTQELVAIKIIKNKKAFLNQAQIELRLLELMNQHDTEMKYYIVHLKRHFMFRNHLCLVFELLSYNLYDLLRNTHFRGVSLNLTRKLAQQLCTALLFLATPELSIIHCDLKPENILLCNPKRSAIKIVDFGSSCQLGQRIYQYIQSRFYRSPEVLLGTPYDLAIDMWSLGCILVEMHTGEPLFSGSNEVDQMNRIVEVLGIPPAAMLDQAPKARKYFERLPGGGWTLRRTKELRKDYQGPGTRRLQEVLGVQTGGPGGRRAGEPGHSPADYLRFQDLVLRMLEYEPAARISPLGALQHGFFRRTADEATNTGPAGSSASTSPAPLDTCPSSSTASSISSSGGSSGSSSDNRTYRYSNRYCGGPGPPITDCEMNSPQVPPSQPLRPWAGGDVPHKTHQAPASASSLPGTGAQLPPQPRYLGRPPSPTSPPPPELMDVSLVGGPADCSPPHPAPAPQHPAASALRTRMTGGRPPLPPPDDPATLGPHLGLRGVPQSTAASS

Take `Clc1cccc(CNc2nccc(-c3n[nH]c4nc(NCCN5CCCC5)ncc34)n2)c1` [Example 90, {3-[2-(3-Chloro-benzylamino)-pyrimidin-4-yl]-1H-pyrazolo[3,4-d]pyrimidin-6-yl}-(2-pyrrolidin-1-yl-ethyl)-amine; hydrochloride]: the IC50 (commonly the concentration needed to halve the response being measured) at Human DYRK1B was determined as 1.32 µM; on Human DYRK1A, 0.536 µM.

Take `OCCNc1ncc2c(-c3ccnc(NCc4cccc(Cl)c4)n3)n[nH]c2n1` [Example 91, 2-{3-[2-(3-Chloro-benzylamino)-pyrimidin-4-yl]-1H-pyrazolo[3,4-d]pyrimidin-6-ylamino}-ethanol; hydrochloride]: the results for the concentration for half-maximal inhibition (IC50) on Human DYRK1B and on Human DYRK1A were 0.183 µM and 0.25 µM, respectively.

With `c1cc(NCc2ccsc2)cc(-c2n[nH]c3nc(NCCN4CCOCC4)ncc23)c1` [Example 51, (2-Morpholin-4-yl-ethyl)-(3-{3-[(thiophen-3-ylmethyl)-amino]-phenyl}-1H-pyrazolo[3,4-d]pyrimidin-6-yl)-amine], the half-maximal inhibitory concentration (IC50) on Human DYRK1B is over 10 µM; at Human DYRK1A, 9.02 µM.

`NCC(Nc1nccc(-c2n[nH]c3nc(N[C@H]4CC[C@H](N)CC4)ncc23)n1)c1ccccc1` (stereo partly shown) [Example 67, N-{3-[2-(2-Amino-1-phenyl-ethylamino)-pyrimidin-4-yl]-1H-pyrazolo[3,4-d]pyrimidin-6-yl}-cyclohexane-1,4-diamine; hydrochloride]: the IC50 is 0.00517 µM on Human DYRK1B and 0.0046 µM at Human DYRK1A.

Regarding `NCCC(Nc1cccc(-c2n[nH]c3nc(NCCN4CCOCC4)ncc23)c1)c1ccccc1` (stereo not shown) [Example 73, N1-{3-[6-(2-Morpholin-4-yl-ethylamino)-1H-pyrazolo[3,4-d]pyrimidin-3-yl]-phenyl}-1-phenyl-propane-1,3-diamine; hydrochloride], the figures for the IC50 on Human DYRK1B and at Human DYRK1A were 9.59 µM and 4.88 µM, respectively.

As to `c1ccc(CNc2cccc(-c3n[nH]c4nc(NCCN5CCOCC5)ncc34)c2)cc1` [Example 46, [3-(3-Benzylamino-phenyl)-1H-pyrazolo[3,4-d]pyrimidin-6-yl]-(2-morpholin-4-yl-ethyl)-amine], the inhibition – broadly, the drop in the measured response relative to a control, in per cent – at 10 µM was 43% at Human DYRK1B and 55% against Human DYRK1A (at 10 μM test compound concentration, where the IC50 was not determined).

For `Clc1cccc(CNc2nccc(-c3n[nH]c4nc(NCCN5CCCCC5)ncc34)n2)c1` [Example 93, hydrochloride], the IC50 at Human DYRK1B is 0.93 µM; at Human DYRK1A, 0.46 µM.

On to `N[C@H]1CC[C@H](Nc2ncc3c(-c4ccnc(NCc5cccc(C(F)(F)F)c5)n4)n[nH]c3n2)CC1` [Example 84, N-{3-[2-(3-Trifluoromethyl-benzylamino)-pyrimidin-4-yl]-1H-pyrazolo[3,4-d]pyrimidin-6-yl}-cyclohexane-1,4-diamine; hydrochloride], for which the concentration for half-maximal inhibition (IC50) at Human DYRK1B was found to be 0.007 µM; at Human DYRK1A it was 0.005 µM.

With `N[C@H]1CC[C@H](Nc2ncc3c(-c4ccnc(NCc5cccc(F)c5)n4)n[nH]c3n2)CC1` [Example 85, N-{3-[2-(3-Fluoro-benzylamino)-pyrimidin-4-yl]-1H-pyrazolo[3,4-d]pyrimidin-6-yl}-cyclohexane-1,4-diamine; hydrochloride], the 50% inhibitory concentration (IC50) on Human DYRK1B was under 0.0046 µM; at Human DYRK1A, 0.0046 µM.

For `N[C@H]1CC[C@@H](Nc2ncc3c(-c4ccnc(NCc5cccc(Cl)c5)n4)n[nH]c3n2)CC1` [Example 89, N-{3-[2-(3-Chloro-benzylamino)-pyrimidin-4-yl]-1H-pyrazolo[3,4-d]pyrimidin-6-yl}-cyclohexane-1,4-diamine; hydrochloride], the figures for the IC50 on Human DYRK1B and at Human DYRK1A were 0.186 µM and 0.415 µM, respectively.

As for `N[C@H]1CC[C@H](Nc2ncc3c(-c4cccc(NCc5ccsc5)n4)n[nH]c3n2)CC1` [Example 65, N-(3-{6-[(Thiophen-3-ylmethyl)-amino]-pyridin-2-yl}-1H-pyrazolo[3,4-d]pyrimidin-6-yl)-cyclohexane-1,4-diamine; hydrochloride], the concentration for half-maximal inhibition (IC50) is under 0.005 µM on Human DYRK1B and 0.021 µM at Human DYRK1A.

`NCCC(Nc1cccc(-c2n[nH]c3nc(NCCN4CCOCC4)ncc23)n1)c1ccccc1` (stereo not shown) [Example 75, N1-{6-[6-(2-Morpholin-4-yl-ethylamino)-1H-pyrazolo[3,4-d]pyrimidin-3-yl]-pyridin-2-yl}-1-phenyl-propane-1,3-diamine; hydrochloride]: the IC50 worked out at 2.73 µM at Human DYRK1B and 2.58 µM on Human DYRK1A.

Regarding `Clc1ccc(CNc2cccc(-c3n[nH]c4nc(NCCN5CCOCC5)ncc34)c2)cc1` [Example 50, {3-[3-(4-Chloro-benzylamino)-phenyl]-1H-pyrazolo[3,4-d]pyrimidin-6-yl}-(2-morpholin-4-yl-ethyl)-amine], the IC50 at Human DYRK1B was over 10 µM; at Human DYRK1A, 4.91 µM.

Consider `NCCC(Nc1nccc(-c2n[nH]c3nc(N[C@H]4CC[C@H](N)CC4)ncc23)n1)c1ccccc1` (stereo partly shown) [Example 68, N-{3-[2-(3-Amino-1-phenyl-propylamino)-pyrimidin-4-yl]-1H-pyrazolo[3,4-d]pyrimidin-6-yl}-cyclohexane-1,4-diamine; hydrochloride], for which the 50% inhibitory concentration (IC50) on Human DYRK1B and on Human DYRK1A was 0.011 µM each time.

For the compound `c1ccc(CNc2cccc(-c3n[nH]c4nc(NCCN5CCCCC5)ncc34)n2)cc1` [Example 44, [3-(6-Benzylamino-pyridin-2-yl)-1H-pyrazolo[3,4-d]pyrimidin-6-yl]-(2-piperidin-1-yl-ethyl)-amine], at Human DYRK1B, the inhibition at 10 µM was found to be 32%. At Human DYRK1A, the IC50 stood at 3.96 µM.

For the compound `Clc1ccc(CNc2cccc(-c3n[nH]c4nc(NCCN5CCOCC5)ncc34)n2)cc1` [Example 48, {3-[6-(4-Chloro-benzylamino)-pyridin-2-yl]-1H-pyrazolo[3,4-d]pyrimidin-6-yl}-(2-morpholin-4-yl-ethyl)-amine], the IC50 at Human DYRK1B worked out at 2.92 µM; on Human DYRK1A it was 2.96 µM.

With `Clc1cccc(CNc2nccc(-c3n[nH]c4nc(NC5CCNCC5)ncc34)n2)c1` [Example 86, {3-[2-(3-Chloro-benzylamino)-pyrimidin-4-yl]-1H-pyrazolo[3,4-d]pyrimidin-6-yl}-piperidin-4-yl-amine; hydrochloride], the IC50 on Human DYRK1B came out at 0.078 µM; on Human DYRK1A, 0.047 µM.

These data come from patent publication US8362023B2, “Pyrazolo pyrimidines” (Hoffmann-La Roche Inc., priority 2011, dated 2013).
